Data on nine molecules can be found in ChEMBL document CHEMBL3813693, “Gastroprotective effects of new diterpenoid derivatives from Azorella cuatrecasasii Mathias & Constance obtained using a β-cyclodextrin complex with microbial and chemical transformations” (2016).

The test system of assay [1] is Mus musculus. The assay is described as follows: Gastroprotective activity in Swiss albino mouse model of HCl/EtOH-induced ulcer assessed as lesion index at 20 mg/kg, po dosed 50 mins before HCl/EtOH challenge measured after 1 hr (reference value: 37.7 +/- 4.3 millimeter). The format is functional.
In assay [2] the test system is Mus musculus. The assay is described as follows: Gastroprotective activity in Swiss albino mouse assessed as reduction in HCl/EtOH-induced gastric lesions at 20 mg/kg, po dosed 50 mins before HCl/EtOH challenge measured after 1 hr relative to control. The format is functional. The conditions noted are these: Stomach.

In general, inhibition in vivo refers to the drop in the measured response relative to a control, in per cent. In the case of `COC(=O)[C@]12C[C@@H](O)[C@@]3(C)CC=C(CO)C=C[C@H]3[C@@H]1CC[C@@H]2C(C)C`, the UI in assay [1] is 24.3 mm. In addition, the inhibition in vivo at 20 mg/kg in assay [2] came out at 36%.
As to `Cc1c(OCC(F)(F)F)ccnc1C[S+]([O-])c1nc2ccccc2[nH]1` (stereo not drawn) [LANSOPRAZOLE], in assay [1], the UI amounted to 16.1 mm. The inhibition in vivo at 20 mg/kg in assay [2] was 57%.
As to `CC(=O)OCC1=CC[C@]2(C)CC[C@]3(C(=O)O)[C@@H](C(C)C)CC[C@H]3[C@@H]2C=C1`, the UI in assay [1] is given as 21.6 mm. Further, the inhibition in vivo at 20 mg/kg in assay [2] worked out at 43%.
For `COC(=O)[C@]12CC[C@@]3(C)CC=C(CO)C=C[C@H]3[C@@H]1CC[C@@H]2C(C)C` the same measures were 31 mm and 18%.
For `CC(C)[C@H]1CC[C@H]2[C@@H]3C=CC(CO)=CC[C@]3(C)CC[C@]12C(=O)O` the same measures were 15.4 mm and 59%.
Turning to `COC(=O)[C@]12C[C@@H](OC(C)=O)[C@@]3(C)CC=C(COC(C)=O)C=C[C@H]3[C@@H]1CC[C@@H]2C(C)C`, in assay [1], the UI is 35.6 mm. Besides, the inhibition in vivo at 20 mg/kg in assay [2] turned out to be 6%.
For `CC(C)[C@H]1CC[C@H]2[C@@H]3C=CC(CO)=CC[C@]3(C)[C@H](O)C[C@]12C(=O)O` the same measures were 11.8 mm and 69%.
For `COC(=O)[C@]12CC[C@@]3(C)CC=C(COC(C)=O)C=C[C@H]3[C@@H]1CC[C@@H]2C(C)C` the same measures were 36.8 mm and 3%.
Taken in the same sequence, the figures for `CC(=O)OCC1=CC[C@]2(C)[C@H](OC(C)=O)C[C@]3(C(=O)O)[C@@H](C(C)C)CC[C@H]3[C@@H]2C=C1` were 19.6 mm and 48%.
